For 15 molecules, IC50 results are on record in patent publication US8648103B2, “Nitrogen-containing aromatic heterocyclyl compound” (Daiichi Sankyo Company, Limited, priority 2008, dated 2014).

The term IC50 denotes the concentration that gives 50% inhibition. High values mean a need for much substance, low ones inhibition by little substance.

One assay has as its system Human subcutaneous adipocytes. Briefly: Adipocyte lipolysis assay (suppression of isoproterenol-stimulated fatty acid release). Particulars: Homo sapiens, Adipocyte; test compound concentration giving 50% fatty acid concentration reduction percentage in culture supernatant; 1 μM isoproterenol, 5 hours incubation; reduction by 100 μM nicotinic acid set at 100%. In kind it is cell-based. From the text:
The suppressive or promoting activity of a test compound on the lipolysis of neutral fat can be assayed according to an adipocyte lipolysis assay as a cell line assay. If a beta adrenoceptor is stimulated with isoproterenol or the like in adipocytes, lipolysis action in which neutral fat accumulated in the cells is decomposed into fatty acid and glycerol can be promoted, and as a result, the amount of such fatty acid or glycerol released out of the cells can be increased. When a test compound that suppresses lipolysis is added to adipocytes, lipolysis-promoting action by isoproterenol stimulation is reduced, and the concentration of fatty acid or glycerol in a medium is decreased. Accordingly, the suppressive activity of a test compound on lipolysis can be assayed by measuring the reduction percentage of the fatty acid concentration or glycerol concentration in a culture supernatant. Likewise, the promoting activity of a test compound on lipolysis can be assayed by measuring the increase percentage of the fatty acid concentration or glycerol concentration in a medium.
• (1) Human subcutaneous adipocytes disseminated onto a 96 well (Dainippon Sumitomo Pharma Co., Ltd.: F-SA-1096) • (2) Adipocyte Maintenance Medium (Dainippon Sumitomo Pharma Co., Ltd.: AM 1) • (3) Lipolysis assay buffer [137 mM NaCl, 5 mM KCl, 4.2 mM NaHCO3, 1.3 mM CaCl2, 0.5 mM KH2PO4, 0.5 mM MgCl2, 0.5 mM MgSO4, 5 mM Glucose, 20 mM Hepes (pH 7.4), 1% BSA, 1 μM Isoproterenol] • (4) NEFA-C Test Wako (Wako Pure Chemical Industries, Ltd.) Preparation of Screening Materials
In this operation, the actual concentration of the test compound in the buffer was 1/1000 of the above-described concentration.
The above-described subcutaneous adipocytes were cultured in 200 μL of an Adipocyte Maintenance Medium in each well for 7 days. During this culturing operation, the medium was exchanged with a fresh one every 3 days. The medium was exchanged by discarding 100 μL of the medium in each well and then adding 100 μL of a fresh Adipocyte Maintenance Medium to the well. Thereafter, the adipocytes were washed with a Lipolysis assay buffer. Subsequently, 50 μL of a Lipolysis assay buffer that contained the above-described test compound was added to each well, and it was then incubated for 5 hours. In order to obtain the measurement value of the test compound in each concentration, 5 wells on a 96-well plate were used with respect to each concentration. As a positive control of a compound having lipolysis suppressive activity, nicotinic acid was used with reference to a previous report [Green A et. al., J. Biol. Chem., 1992, 267(5), 3223-9].
40 μL of a culture supernatant was extracted from each well, and the fatty acid concentration in the supernatant was then measured. Such fatty acid concentration was measured as follows, using the above-described NEFA-C Test Wako. 80 μL of liquid A included in the kit was added to 40 μL of the culture supernatant extracted from each well, and the obtained mixture was then incubated at 37° C. for 10 minutes. Thereafter, 160 μL of liquid B was added, and the obtained mixture was further incubated at 37° C. for 10 minutes. Thereafter, the absorbance at a wavelength of 550 nm was measured. At the same time, a standard fatty acid solution included in the kit was diluted to prepare a dilution series having a volume of 40 μL. According to the same operations as described above, liquid A and liquid B were added, and the absorbance was then measured. In accordance with instructions included with the kit, a calibration curve was prepared. Based on the thus prepared calibration curve, the fatty acid concentration in the culture supernatant was calculated. The reduction percentage of the fatty acid concentration was calculated with the following formula, setting the reduction percentage obtained by addition of 100 μM (final concentration) of nicotinic acid at 100%. […]
Regarding `CCn1cc(NC(=O)CCc2cnn(-c3ccccc3)c2C2CC2)c(C(=O)O)c1` [Example 29], the half-maximal inhibitory concentration (IC50) was determined as 0.042 µM.
Still for that read-out and setting: the result for `CCc1c(CC(F)C(=O)Nc2cn(CC)cc2C(=O)O)cnn1-c1ccccc1` (stereo not drawn) [Example 27] reads 0.036 µM.
On the same count and under the same terms, the result for `CCCCn1cc(NC(=O)CCc2nc(-c3ccc(O)cc3)no2)c(C(=O)O)c1Cl` [Example 52, 4-{3-[3-(4-Hydroxyphenyl)-1,2,4-oxadiazol-5-yl]propanoyl}amino-2-chloro-1-butylpyrrole-3-carboxylic acid] reads 0.771 µM.
`CCn1cc(NC(=O)CCn2cnc(-c3ccccc3)c2C)c(C(=O)O)c1` [Example 24, 4-{3-(4-Phenyl-5-methylimidazol-1-yl)propanoyl}amino-1-ethylpyrrole-3-carboxylic acid] returned a half-maximal inhibitory concentration (IC50) of 0.02 µM.
Regarding `CCc1c(-c2ccc(O)cn2)noc1CC(F)(F)C(=O)Nc1cn(CC)cc1C(=O)O` [Example 66, 4-{3-[4-Ethyl-3-(5-hydroxypyridin-2-yl)isoxazol-5-yl]-2,2-difluoropropanoyl}amino-1-ethylpyrrole-3-carboxylic acid], inhibition was half-maximal at 0.01 µM (IC50).
As to `Cn1cc(NC(=O)CCc2cnc(-c3ccc(O)cc3)s2)c(C(=O)O)c1` [Example 6, 4-{3-[2-(4-Hydroxyphenyl)thiazol-5-yl]propanoyl}amino-1-methylpyrrole-3-carboxylic acid], the IC50 came to 0.024 µM.
Same read-out and setting: the result for `CCn1cc(NC(=O)CCc2noc(-c3ccc(O)cc3)c2Cl)c(C(=O)O)c1` [Example 34, 4-{3-[5-(4-Hydroxyphenyl)-4-chloroisoxazol-3-yl]propanoyl}amino-1-ethylpyrrole-3-carboxylic acid] reads 0.02 µM.
Still for that read-out and setting: with `CCn1cc(NC(=O)CCc2cnc(-c3ccc(O)cc3)s2)c(C(=O)O)c1` [Example 13, 4-{3-[2-(4-Hydroxyphenyl)thiazol-5-yl]propanoyl}amino-1-ethylpyrrole-3-carboxylic acid] the figure was 0.04 µM.
Same read-out and setting: with `CCc1c(-c2ccc(O)cc2)noc1CCC(=O)Nc1cn(CC)cc1C(=O)O` [Example 35, 4-{3-[4-Ethyl-(4-hydroxyphenyl)isoxazol-5-yl]propanoyl}amino-1-ethylpyrrole-3-carboxylic acid] the figure was 0.008 µM; with `CCn1cc(NC(=O)C(F)Cc2cc(-c3ccc(O)cc3)no2)c(C(=O)O)c1` (stereo not drawn) [Example 62, 4-{3-[3-(4-Hydroxyphenyl)isoxazol-5-yl]-2-fluoropropanoyl}amino-1-ethylpyrrole-3-carboxylic acid], 0.028 µM; with `CCn1cc(NC(=O)CCc2cnn(-c3ccc(O)cc3)c2C(C)C)c(C(=O)O)c1` [Example 56, 4-{3-[1-(4-Hydroxyphenyl)-5-isopropylpyrazol-4-yl]propanoylamino}-1-ethylpyrrole-3-carboxylic acid], 0.101 µM.
On to `Cn1cc(NC(=O)CCc2cnc(-c3ccc(O)cc3)o2)c(C(=O)O)c1` [Example 4, 4-{3-[2-(4-Hydroxyphenyl)oxazol-5-yl]propanoyl}amino-1-methylpyrrole-3-carboxylic acid], for which half-maximal inhibition (IC50) was put at 0.232 µM.
Still for that read-out and setting: the result for `CC(C)n1cc(NC(=O)CCc2nc(-c3ccc(O)cn3)no2)c(C(=O)O)c1` [Example 48, 4-{3-[3-(5-Hydroxypyridin-2-yl)-1,2,4-oxadiazol-5-yl]propanoyl}amino-1-isopropylpyrrole-3-carboxylic acid] reads 1 µM.

The assay is the same for the next values; noted with them: test compound concentration giving 50% fatty acid concentration reduction percentage in culture supernatant; 1 μM isoproterenol, 5 hours incubation; reduction by 100 μM nicotinic acid set at 100%.
`CCn1cc(NC(=O)C(F)Cc2cnc(-c3ccc(O)cc3)s2)c(C(=O)O)c1` (single isomer, unassigned; (+)) [Example 23b, (+)-4-{3-[2-(4-Hydroxyphenyl)thiazol-5-yl]-2-fluoropropanoyl}amino-1-ethylpyrrole-3-carboxylic acid]: it took 0.103 µM to reach half-maximal inhibition (IC50).
On the same count and under the same terms, with `CCn1cc(NC(=O)C(F)Cc2cnc(-c3ccc(O)cc3)s2)c(C(=O)O)c1` (single isomer, unassigned; (-)) [Example 23a, (−)-4-{3-[2-(4-Hydroxyphenyl)thiazol-5-yl]-2-fluoropropanoyl}amino-1-ethylpyrrole-3-carboxylic acid] the figure was 0.015 µM.
